Measured values reported in PubChem BioAssay (NCI).
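These data come from cells grown in 96-well plates and exposed to compound for 48 hours at five concentrations. At the TGI there is no net growth.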

Key:
Assay in all cases: NCI-60 cell line screen, 48 h
SNB-75 CNS = tested on: SNB-75 CNS
XF 498 CNS = tested on: XF 498 CNS
SNB-19 CNS = tested on: SNB-19 CNS
LOX IMVI melanoma = tested on: LOX IMVI melanoma
SK-OV-3 ovarian = tested on: SK-OV-3 ovarian
HCT-116 colon = tested on: HCT-116 colon
SK-MEL-5 melanoma = tested on: SK-MEL-5 melanoma
IGROV1 ovarian = tested on: IGROV1 ovarian
SF-295 CNS = tested on: SF-295 CNS
LXFL 529 NSCLC = tested on: LXFL 529 NSCLC
SNB-78 CNS = tested on: SNB-78 CNS
DLD-1 colon = tested on: DLD-1 colon
SF-539 CNS = tested on: SF-539 CNS
DMS 273 small cell lung = tested on: DMS 273 small cell lung
HOP-92 NSCLC = tested on: HOP-92 NSCLC
NCI-H522 lung = tested on: NCI-H522 lung
U251 CNS = tested on: U251 CNS
NCI-H226 lung = tested on: NCI-H226 lung
OVCAR-8 ovarian = tested on: OVCAR-8 ovarian
KM20L2 colon = tested on: KM20L2 colon
EKVX NSCLC = tested on: EKVX NSCLC
SK-MEL-2 melanoma = tested on: SK-MEL-2 melanoma
HCT-15 colon = tested on: HCT-15 colon
HOP-62 NSCLC = tested on: HOP-62 NSCLC
CAKI-1 renal = tested on: CAKI-1 renal
SN12C renal = tested on: SN12C renal
SK-MEL-28 melanoma = tested on: SK-MEL-28 melanoma
MALME-3M melanoma = tested on: MALME-3M melanoma
KM12 colon = tested on: KM12 colon
A549 NSCLC = tested on: A549 NSCLC
M14 melanoma = tested on: M14 melanoma
786-0 renal = tested on: 786-0 renal
M19-MEL melanoma = tested on: M19-MEL melanoma
UACC-62 melanoma = tested on: UACC-62 melanoma
COLO 205 colon = tested on: COLO 205 colon
UO-31 renal = tested on: UO-31 renal
SR leukemia = tested on: SR leukemia
OVCAR-3 ovarian = tested on: OVCAR-3 ovarian
HT29 colon = tested on: HT29 colon
TK-10 renal = tested on: TK-10 renal
HOP-18 NSCLC = tested on: HOP-18 NSCLC
OVCAR-4 ovarian = tested on: OVCAR-4 ovarian
SF-268 CNS = tested on: SF-268 CNS
NCI-H23 lung = tested on: NCI-H23 lung
SW-620 colon = tested on: SW-620 colon
CCRF-CEM leukemia = tested on: CCRF-CEM leukemia
RXF 393 renal = tested on: RXF 393 renal
NCI-H460 lung = tested on: NCI-H460 lung
OVCAR-5 ovarian = tested on: OVCAR-5 ovarian
RPMI-8226 leukemia = tested on: RPMI-8226 leukemia
HL-60(TB) leukemia = tested on: HL-60(TB) leukemia
A498 renal = tested on: A498 renal
DMS 114 small cell lung = tested on: DMS 114 small cell lung
ACHN renal = tested on: ACHN renal
MOLT-4 leukemia = tested on: MOLT-4 leukemia
K-562 leukemia = tested on: K-562 leukemia
UACC-257 melanoma = tested on: UACC-257 melanoma
HCC-2998 colon = tested on: HCC-2998 colon

Measured: TGI

N#CCCN(c1ccc(C=Nc2ccc(C(=O)O)cc2)cc1)S(=O)(=O)c1ccccc1
> 100 µM: all assays above

COc1ccc(OC)c(CCc2ccccc2CC(=O)O)c1
not listed: HOP-62 NSCLC
> 100 µM: all other assays above
